Values joined by “and” are separate entries in the source; they are usually repeats but may differ in a detail not shown here. Equal entries are not always repeated.
Experiments:
Type in all cases: functional
[1] = species on record: Mus musculus; assay: Optimal Dose (OD) which cause maximum increase in the life span, after chronic injection at log (1/C).
[2] = species on record: Mus musculus; assay: Optimal Dose (OD) which cause maximum increase in the life span, after singular injection at log (1/C).
[3] = species on record: Mus musculus; assay: Minimum Effective Dose (MED) which cause 40% increase in life span, after chronic injection at log (1/C).
[4] = species on record: Mus musculus; assay: Minimum Effective Dose (MED) which cause 40% increase in life span, after singular injection at log (1/C).
[5] = Compound was evaluated for the Anti-fighting behavior.; design: scale not given here
[6] = Evaluation for the Anti-pentylenetetrazole effect.; design: unit not given here

O=C1C(c2ccccc2)=C(N2CC2)C(=O)C(c2ccccc2)=C1N1CC1
OD [1]: 4.14 | OD [2]: 3.53 | MED [3]: 4.33

CC1=C(N2CC2)C(=O)C(CC(C)OC(N)=O)=C(N2CC2)C1=O (stereo unspecified)
OD [1]: 5.79 | OD [2]: 5.18 | MED [3]: 6.14 | MED [4]: 5.86

CCC(OC)C1=C(N2CC2)C(=O)C(C)=C(N2CC2)C1=O (stereo unspecified)
OD [1]: 5.33 | OD [2]: 4.84 | MED [3]: 5.68 | MED [4]: 5.26

CCOC(COC(N)=O)C1=C(N2CC2)C(=O)C(C)=C(N2CC2)C1=O (stereo unspecified)
OD [1]: 5.22 | OD [2]: 4.62 | MED [3]: 6.18 | MED [4]: 5.53

O=C1C=C(N2CC2)C(=O)C(N2CC2)=C1N1CC1 [TRIAZIQUONE]
OD [1]: 6.19 | OD [2]: 5.74 | MED [3]: 6.45 | MED [4]: 6.02

CCCC1=C(N2CC2)C(=O)C(CCC)=C(N2CC2)C1=O
OD [1]: 4.44 | OD [2]: 4.14 | MED [3]: 4.92 | MED [4]: 4.32

COCCOC(COC(N)=O)C1=C(N2CC2)C(=O)C(C)=C(N2CC2)C1=O (stereo unspecified)
OD [1]: 5.39 | OD [2]: 4.96 | MED [3]: 6.03 | MED [4]: 5.45

CC1=C(N2CC2)C(=O)C(CCCC2=C(N3CC3)C(=O)C(C)=C(N3CC3)C2=O)=C(N2CC2)C1=O
OD [1]: 5.39 | MED [3]: 5.82

O=C1C(CCO)=C(N2CC2)C(=O)C(CCO)=C1N1CC1
OD [1]: 6.05 | OD [2]: 5.6 | MED [3]: 6.54 | MED [4]: 5.93

CC1=C(N2CC2)C(=O)C(C(C)C)=C(N2CC2)C1=O
OD [1]: 5.21 | OD [2]: 4.69 | MED [3]: 5.6 | MED [4]: 4.96

CN(C)C(=O)OCCC1=C(N2CC2)C(=O)C(CCOC(=O)N(C)C)=C(N2CC2)C1=O
OD [1]: 4.85 | OD [2]: 4.62 | MED [3]: 5.16

CC1=C(N2CC2)C(=O)C(C)=C(N2CC2)C1=O
OD [1]: 5.36 | OD [2]: 4.79 | MED [3]: 5.66 | MED [4]: 5.36

CCOC(COC(N)=O)C1=C(N2CC2)C(=O)C(CC)=C(N2CC2)C1=O (stereo unspecified)
OD [1]: 5.24 | OD [2]: 4.64 | MED [3]: 5.76 | MED [4]: 5.4

COC(CO)C1=C(N2CC2)C(=O)C(C)=C(N2CC2)C1=O (stereo unspecified)
OD [1]: 5.75 | OD [2]: 5.27 | MED [3]: 6.9 | MED [4]: 6.05

CC(C)C1=C(N2CC2)C(=O)C=C(N2CC2)C1=O
OD [1]: 5.37 | OD [2]: 4.59 | MED [3]: 5.68 | MED [4]: 5.16

CC(C)C1=C(N2CC2)C(=O)C(C(C)C)=C(N2CC2)C1=O
OD [1]: 4.59 | OD [2]: 4.14 | MED [3]: 4.77 | MED [4]: 4.36

CCC1=C(N2CC2)C(=O)C(C(COC(N)=O)OC)=C(N2CC2)C1=O (stereo unspecified)
OD [1]: 5.22 | OD [2]: 4.92 | MED [3]: 6.16 | MED [4]: 5.62

CCC(COC(N)=O)C1=C(N2CC2)C(=O)C(C)=C(N2CC2)C1=O (stereo unspecified)
OD [1]: 5.66 | OD [2]: 5.2 | MED [3]: 6.18 | MED [4]: 6.03

CCCC1=C(N2CC2)C(=O)C(C(COC(N)=O)OC)=C(N2CC2)C1=O (stereo unspecified)
OD [1]: 5.07 | OD [2]: 4.64 | MED [3]: 5.63 | MED [4]: 5.01

N#Cc1ccc2c(c1)C(c1ccccc1)=NCC(=O)N2
Anti-fighting behaviour [5]: 3.81 | Anti-pent effect [6]: 5.3

CCC(C)CN1C(=O)CN=C(c2ccccc2)c2cc([N+](=O)[O-])ccc21 (stereo unspecified)
Anti-fighting behaviour [5]: 3.77 | Anti-pent effect [6]: 4.8

CSc1ccc2c(c1)C(c1ccccc1)=NCC(=O)N2
Anti-fighting behaviour [5]: 4.15 | Anti-pent effect [6]: 4.15

CCC1=C(N2CC2)C(=O)C(CC)=C(N2CC2)C1=O
OD [1]: 5.09 | OD [2]: 4.79 | MED [3]: 5.46 | MED [4]: 4.94

CN1C(=O)CN=C(c2ccccc2)c2cc(C#N)ccc21
Anti-fighting behaviour [5]: 4.74 | Anti-pent effect [6]: 5.44

CC1=C(N2CC2)C(=O)C(CCO)=C(N2CC2)C1=O
OD [1]: 5.79 | OD [2]: 5.25 | MED [3]: 6.39 | MED [4]: 5.89

CN1C(=O)CN=C(c2ccccc2)c2cc([N+](=O)[O-])ccc21
Anti-fighting behaviour [5]: 5.07 | Anti-pent effect [6]: 5.62

CCN(CC)CCN1C(=O)CN=C(c2ccccc2F)c2cc(Cl)ccc21
Anti-fighting behaviour [5]: 4.29 | Anti-pent effect [6]: 5.38

COCCC1=C(N2CC2)C(=O)C(CCOC)=C(N2CC2)C1=O
OD [1]: 5.31 | OD [2]: 4.71 | MED [3]: 5.69 | MED [4]: 5.18

CC1=C(N2CC2)C(=O)C(COc2ccccc2)=C(N2CC2)C1=O
OD [1]: 4.71 | OD [2]: 3.89 | MED [3]: 5.15 | MED [4]: 4.68

CCC1=C(N2CC2)C(=O)C(C)=C(N2CC2)C1=O
OD [1]: 5.37 | OD [2]: 4.52 | MED [3]: 5.86 | MED [4]: 5.16

O=C1CN=C(c2ccccc2Cl)c2cc(Cl)ccc2N1
Anti-fighting behaviour [5]: 5.18 | Anti-pent effect [6]: 5.85

CC1=C(N2CC2)C(=O)C(Cc2ccccc2)=C(N2CC2)C1=O
OD [1]: 4.69 | OD [2]: 4.26 | MED [3]: 4.85 | MED [4]: 4.74

CN(C)CCCN1C(=O)CN=C(c2ccccc2)c2cc([N+](=O)[O-])ccc21
Anti-fighting behaviour [5]: 3.61 and 3.96 | Anti-pent effect [6]: 5.82 and 4.28

CC(=O)C1=C(N2CC2)C(=O)C(C)=C(N2CC2)C1=O
OD [2]: 3.48 | MED [4]: 3.94

CN(C)CCN1C(=O)CN=C(c2ccccc2)c2cc([N+](=O)[O-])ccc21
Anti-fighting behaviour [5]: 4.25 | Anti-pent effect [6]: 4.7

CC(=O)OCCC1=C(N2CC2)C(=O)C(C)=C(N2CC2)C1=O
OD [1]: 5.78 | MED [3]: 5.78

CC(=O)CN1C(=O)CN=C(c2ccccc2)c2cc(Cl)ccc21
Anti-fighting behaviour [5]: 4.21 | Anti-pent effect [6]: 5.28

NN1C(=O)CN=C(c2ccccc2)c2cc([N+](=O)[O-])ccc21
Anti-fighting behaviour [5]: 5.17 | Anti-pent effect [6]: 5.77

O=C1CN=C(c2ccccc2F)c2cc(Cl)ccc2N1
Anti-fighting behaviour [5]: 4.76 | Anti-pent effect [6]: 6.46

O=C1CN=C(c2ccccc2F)c2cc([N+](=O)[O-])ccc2N1
Anti-fighting behaviour [5]: 5.17 | Anti-pent effect [6]: 6

O=C1CN=C(c2ccccc2Cl)c2cc([N+](=O)[O-])ccc2N1
Anti-fighting behaviour [5]: 4.2 | Anti-pent effect [6]: 6.3

CN1C(=O)CN=C(c2ccccc2Cl)c2cc(Cl)ccc21
Anti-fighting behaviour [5]: 4.5 | Anti-pent effect [6]: 6.03

CC1=C(N2CC2)C(=O)C(CCOC(=O)N(C)C)=C(N2CC2)C1=O
OD [2]: 4.84 | MED [4]: 5.09

CN(C)CCN1C(=O)CN=C(c2ccccc2)c2cc(Cl)ccc21
Anti-fighting behaviour [5]: 3.53 | Anti-pent effect [6]: 4.73

CN1C(=O)CN=C(c2ccccc2Cl)c2cc([N+](=O)[O-])ccc21
Anti-fighting behaviour [5]: 5.12 | Anti-pent effect [6]: 6.92

CCC(C)CN1C(=O)CN=C(c2ccccc2)c2cc(Cl)ccc21 (stereo unspecified)
Anti-fighting behaviour [5]: 3.53 | Anti-pent effect [6]: 4.99

O=C1CN=C(c2ccccc2)c2cc([N+](=O)[O-])ccc2N1
Anti-fighting behaviour [5]: 4.75 | Anti-pent effect [6]: 5.6

CN1C(=O)CN=C(c2ccccc2C(F)(F)F)c2cc([N+](=O)[O-])ccc21
Anti-fighting behaviour [5]: 4.86 | Anti-pent effect [6]: 5.71

Cc1ccccc1C1=NCC(=O)Nc2ccc(Cl)cc21
Anti-fighting behaviour [5]: 3.45 | Anti-pent effect [6]: 4.57

NC(=O)CN1C(=O)CN=C(c2ccccc2)c2cc(Cl)ccc21
Anti-fighting behaviour [5]: 4.21 | Anti-pent effect [6]: 5.07
